Measured values published in article PMC12320299 (Chemical Science, 2025).

Test system: SW480 cancer cells
Experiment: Proteome profiling of compound-treated SW480 cancer cells (24 h, approx. IC50, CYT and NE fractions)
Format: cell-based, human
Protocol: To gain insight into potential modes of action and derive structure–activity relationships on a molecular level, proteomic profiling experiments were carried out based on label-free quantification (LFQ) by nano-liquid chromatography tandem mass spectrometry (nLC-MS/MS). […] Six replicates were used per condition. The perturbations were evaluated at subcellular resolution by fractionating cells into cytoplasmic (CYT) and nuclear (NE) protein fractions. Those have been separately proteolytically digested and analysed (Fig. 3A). The perturbations with the 3-Et-NQ and 3-Morph-NQ complexes were performed against their respective solvent-treated controls (CON), yielding a total of 72 samples. […] Statistical significance of individual protein regulations was calculated by multiple testing-corrected P-values based on 5% false discovery rate (FDR = 0.05 and S0 = 0.1).
The position of each group represents the summed fold-changes of the individual proteins in the group according to the subcellular space, i.e., CYT and NE fractions, while the size represents the number of proteins in each group. […]
Proteome profiling of compound-treated SW480 cancer cells […]
cells per well and left to adhere in complete cell culture medium. After 24 h, the medium was exchanged with fresh complete medium (DMSO mock control) or fresh medium containing […]
solution in DMSO, respectively) and incubated for another 24 h. Each condition was carried out in hexuplicates. The cells were processed according to a nucleocytoplasmic fractionation protocol as previously described.3 All steps were performed on ice. The medium was removed, and the cells were washed twice with 1×PBS (phosphate buffered saline, 3 mL). Then, PBS was thoroughly removed. Isotonic lysis buffer (10 mM HEPES, 10 mM NaCl, 3.5 mM MgCl2, 1 mM EGTA, 0.25 M Sucrose, 0.5% Triton X-100) containing protease inhibitors (1% PMSF, Sigma, and 1% protease and phosphatase inhibitor cocktail, Roche) was added to the flasks, the cells were scraped off and transferred into labelled 15 mL Falcon tubes. The cellular membrane was ruptured using shear stress by pressing the cell suspension through a syringe 9–12 times. Membrane rupture with intact nuclei was monitored under a microscope. After centrifugation (960 g, 5 min), the supernatant containing the cytoplasmic (CYT) proteins was transferred into new tubes containing ice-cold ethanol (1 : 5, HPLC grade) and precipitated […]
overnight at –20 °C. The pellet containing the nuclei was incubated with a hypertonic solution (10 mM Tris-HCl, 1 mM EDTA and 0.5 M NaCl) and subsequently diluted 1:10 with NP-40 buffer (10 mm Tris-HCl, 1 mm EDTA and 0.5% Triton X-100) containing protease inhibitors (1% PMSF, Sigma, and 1% protease and phosphatase inhibitor cocktail, Roche). After centrifugation (960 g, 5 min), the soluble nuclear (NE) proteins were also transferred into new tubes containing ice-cold ethanol (1 : 5, HPLC grade) and precipitated overnight at –20 °C.
The precipitated proteins were finally pelleted by centrifugation (5000 g, 30 min, 4 °C), the solution was decanted and the pellet dried under vacuum.

[1] = cytoplasmic fraction, FDR = 0.05, S0 = 0.1

CCC1=C2[O][Ru][O]C2(n2cccn2)c2ccccc2C1=O.Cc1ccc(C(C)C)cc1 (stereo not drawn) [Compound 1a, [(3-ethyl-4-oxo-(pyrazolyl)-dihydronaphthalene)(cymene)ruthenium(II)]]
N° proteins down-regulated, NE: 211
N° proteins upregulated, NE: 178
N° significantly regulated proteins, Total (CYT and NE): 810
TP53 regulation in cytoplasmic fraction (CYT fraction): strongest down-regulated protein
N° proteins down-regulated, CYT [1]: 298
N° proteins upregulated, CYT [1]: 123
